Source: US5000936A, “Methods for locally-treating allergic disorders with pharmaceutical preparations containing N-acetyl-aspartyl glutamic acid or its salts” (THEA (Therapeutique et Applications) S.A., priority 1983, dated 1991)
Where a name gives a salt, the structure may show the parent alone. Where a SMILES comes first, the peptide text is derived from it.

Legend:
[1] = system: allergic conjunctivitis; assay: trial on allergic conjunctivitis in the rabbit; format: in vivo; conditions: n = 12 eyes
Excerpt: The experimental protocol has been established according to works by OKADA et al. (OKADA-SHIMADA, Invest. Ophthalmol. Vis. Sc. 1980, 19 2, 176-181).
The model of allergic conjunctivitis used consists in effecting a conjunctival immunization in rabbits by local injection of rabbit antibodies to bovine gammaglobulins. The conjunctivitis is then triggered by the inflammation of allergic origin thus provoked are observed as an increase in the weight of the conjunctiva, and as enhancement of the conjunctival capillary permeability to iodine-125 labeled rabbit serum albumin injected intravenously before the injection of the antigen.
Two hours after the injection of bovine gammaglobulins, the rabbits are sacrificed, and then the eyes are removed and the conjunctiva dissected out, weighed and submitted to radioactive counting.
Three parameters are recorded:
the weight of the conjunctiva,
the blood conjunctiva permeability index, evaluated as the ratio of the radioactivity of 1 mg of conjunctiva to that of 1 ml of blood,
the quantity of labeled serum albumin recovered in the conjunctiva.
To evaluate the protective effect of the preparation under investigation, several batches of six rabbits are formed, which receive 6 instillations of 2 eye-drops in each eye daily for 3.5 days before the injection of labeled serum albumin.
One batch of six normal rabbits, not tested and not subjected to provacation of the allergy, is also formed ("blank" batch), as well as a batch of six control rabbits receiving instillations of physiological serum before the triggering of the conjunctivitis ("conjunctivitis controls").

[2] = system: mast cells of the nasal mucosa; assay: mast cell degranulation of nasal mucosa of guinea pig by instillation of 48/80; format: in vivo
Description: The test is based on the determination by microscopy of the number of granulated mast cells per unit area in the nasal mucosa of the guinea pig, and on the study of the administration of a histamine releasing substance --48/80--on this number of mast cells. Guinea pigs receive in each nostril, twice daily during 3 days. 0.1 ml of the product under investigation, 15 minutes before the nasal instillation of 0.1 ml of 48/80 in solution at 2 % concentration; the animals are sacrificed 1 hour after the last instillation.
After sacrifice, the nasal mucosa is removed, then fixed and stained with toluidine blue to allow selective staining of the granulated mast cells. For each animal, the mast cells contained in 100 microscopic fields are counted by microscopy.

[3] = system: perennial allergic rhinitis; assay: double-blind cross-over clinical study in perennial allergic rhinitis (Example XIII); format: in vivo, patients; conditions: 2 sprays per nostril, 5 times per day, 2 weeks
Description: The aim of the present study was to determine the efficacy and tolerance of the composition according to example II.2., in the treatment of allergic rhinitis. For this purpose, a double-blind trial was undertaken versus a reference drug: disodium Cromoglycate in a 2 % nasal solution. The study involved 34 patients, suffering from perennial allergic rhinitis. Each patient was included in a cross-over treatment protocol, according to which the two drugs compared were administered successively during 2 treatment periods of 2 weeks each, at the dose of 2 sprays per nostril, 5 times per day.

[4] = system: chronic allergic conjunctivitis; assay: double blind clinical study in chronic allergic conjunctivitis (Example IX); format: in vivo, patients
Description: The trial was performed in double blind. The objective was to determine the effects of the composition according to Example I.2.: an ophthalmic solution at 4 % concentration, on the ocular symptoms and inflammatory conjunctival signs of patients suffering from chronic allergic conjunctivitis, compared with the sodium cromoglycate in ophthalmic solution at 2 % concentration used in therapy. The results of this comparative study concern 33 patients, of both sexes, who were distributed randomly into two groups: received the composition according to Example I.2. during 2 weeks at the rate of 1 drop in each eye to be treated, 3 to 5 times daily. These patients then received sodium cromoglycate in eye-drops at 2 % concentration (commercial eye-drops) during two supplementary weeks and at the same dosage, 16 patients received the same eye-drops in the reverse order and for the same lengths of time. The random assortment of the patients ensured good homogeneity in the distribution between the two treatment groups, not only in respect of the clinical characteristics, but also in respect of the duration of administration of the eye-drops under trial, and the use of concomitant treatments.

[5] = system: sub-acute and chronic atopic conjunctivitis; assay: clinical study in sub-acute and chronic atopic conjunctivitis (Example XII); format: in vivo; conditions: 27 patients; at least one year on 2 % Cromoglycate, then two months 4 % NAAGA eye-drops four times daily
Description: Twenty seven patients suffering from sub-acute and chronic atopic conjunctivitis who were treated for at least one year on 2 % Cromoglycate eye-drops, were switched from Cromoglycate treatment to 4 % NAAGA eye-drops four times daily. Before and after two months treatment period with composition according to example I.2., the patients were checked objectively in order to score the severity of conjunctival livid hyperemia and the amount of exudate. Subjectively the patients were asked to assess the symptoms of itching, burning and photophobia. Objective and subjective assessments were scored by means of visual analog scales.

[6] = system: ciliary movement; assay: acute tolerance on ciliary movement, overall verdict; format: cell-based, guinea pigs or rabbits; conditions: contact times which exceed 20 minutes
Excerpt: The technique used has been described under the name of microphotooscillography (L. G. CHEVANCE, J. F. LENNON: Etude des rythmes du battement ciliare (Study of rhythms of ciliary beating) Acta Otolaryng., 1970-70, 16-28)). In this study, guinea pigs or rabbits were used which were free of all clinical sign of infection of the airways. The animals are sacrificed, and then the nasal septum or trachea is dissected out. These tissues are placed in PBS survival medium and the superficial epithelium is removed by scraping, over an area of about 1 mm^2. This sample, which contains numerous ciliated cells in movement, is placed in an observation chamber under a special microscope equipped with a microphotoelectric system permitting the recording of ciliary beats in transillumination.
The measurement consists in recording the fluctuations in the light caused by the image, enlarged 500 times, of a cilium moving in front of the aperture of a diaphragm of suitable dimensions. After amplification, the fluctuations in light are recorded graphically.
Impairments of ciliary movement are translated as a decrease in the frequency of the ciliary beats. […]

[7] = metabolism after oral and parenteral administration (statement); format: in vivo; conditions: oral and parenteral routes of administration

With `O=C(O)c1cc(=O)c2c(OCC(O)COc3cccc4oc(C(=O)O)cc(=O)c34)cccc2o1` [sodium cromoglycate] the “Quantity of serum albumin in the conjunctiva” value ([1]; 6 instillations of 2 eye-drops in each eye daily for 3.5 days, mean ± spread) was 34.5 ± 13.6 µg, the “Weight of the conjunctiva” value [1] was 411 ± 64 mg and the “Blood-conjunctiva index (× 100)” value ([1]; ratio of radioactivity of 1 mg of conjunctiva to that of 1 ml of blood, × 100) was 4.7 ± 1.8. For the same molecule, the “Average number of granulated mast cells per microscopic field” value ([2]; 0.1 ml in each nostril twice daily during 3 days, 15 minutes before 48/80 at 2 %) was 4.6, the “protective effect inferior to that of NAAGA by” value ([2]; 2 % concentration (commercial solution), same experimental condition) was “about 40%” and the “Nasal and systemic tolerance” value [3] was “good and no side-effects were seen”. The “patients with results of treatment considered to be good” value [3] was 61%, the “patients with improvement in the ocular symptoms” value ([4]; 1 drop in each eye 3 to 5 times daily, 2 weeks per product, 33 patients) was “more than 65%” and the “preferences expressed by the patients” value ([4]; cross-over comparison of the two eye-drops) was 33%. For the same molecule, the “frequency of marginal objective control” value [5] was 33% and the “frequency of marginal subjective control” value [5] was 37%.

For `CC(=O)N[C@@H](CC(=O)O)C(=O)N[C@@H](CCC(=O)O)C(=O)O` [sodium salt] (Ac-Asp-Glu-OH), the “acute tolerance on ciliary movement versus criterion (not more than 50% decrease after twenty minutes)” value [6] was “Analogous results”.

In the case of `CC(=O)N[C@@H](CC(=O)O)C(=O)N[C@@H](CCC(=O)O)C(=O)O` [NAAGA, N-acetyl-(alpha, beta)-aspartyl glutamic acid] (Ac-Asp-Glu-OH), the metabolism [7] is reported as “rapidly and extensively metabolized”.
